From patent publication US11414424B2, “Cardiac sarcomere inhibitors” (Cytokinetics, Inc., priority 2018, dated 2022)

Legend:
[1] = test system: bovine cardiac myofibrils; assay: Myofibril assay: PK/LDH-coupled steady-state ATPase activity of skinned bovine cardiac myofibrils; format: biochemical; details: Ca2+ activating to 75% of maximal rate
Procedure, shortened: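 Steady-state ATPase of detergent-skinned bovine left-ventricular myofibrils (1 mg/mL), PK/LDH-coupled NADH read at 340 nm, in PIPES/MgCl2 buffer pH 6.8 with 50 μM ATP, 0.6 mM EGTA and CaCl2 set for 50% or 75% activation. Inhibition of activity measured.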

[2] = test system: adult cardiac ventricular rat myocytes; assay: Adult ventricular myocyte contractility (fractional shortening); format: cell-based; details: 5 min perfusion
Description: Adult male Sprague-Dawley rats were anesthetized and the hearts were quickly excised, rinsed and the ascending aorta was cannulated. Continuous retrograde perfusion was initiated on the hearts at a perfusion pressure of 60 cm H2O. Hearts were first perfused with a nominally Ca^2+-free modified Krebs solution of the following composition: 113 mM NaCl, 4.7 mM KCl, 0.6 mM KH2PO4, 0.6 mM Na2HPO4, 1.2 mM MgSO4, 12 mM NaHCO3, 10 mM KHCO3, 30 mM taurine, 5.5 mM glucose and 10 mM Hepes (all Sigma). This medium was not recirculated and was continually aerated with a 95% O2/5% CO2 mixture. After approximately 3 minutes, the heart was perfused with a modified Krebs buffer supplemented with collagenase (Worthington) and 12.5 μM final calcium concentration. The heart was removed from the cannulae after the heart appeared blanched and soft in appearance. The atria and vessels were removed and the ventricles were gently dissected into smaller pieces with forceps. The tissue was homogenized by repeated pipette trituration and the collagenase reaction was stopped by 10% bovine calf serum (BCS), sedimentation and resuspension in perfusion buffer containing 5% BCS and 12.5 uM CaCl2. Myocytes were made calcium tolerant by stepwise addition of a CaCl2 solution to a final concentration of 1.2 mM. Cells were then washed and resuspended in Tyrode's buffer (137 mM NaCl, 3.7 mM KCl, 0.5 mM MgCl, 11 mM glucose, 4 mM Hepes, and 1.2 mM CaCl2, pH 7.4). Cells were kept for 60 min at 37° C. prior to initiating experiments and used within 5 hrs of isolation. […] Additionally, only cells whose basal contractility was between 3 and 8% were used in subsequent experiments with compounds.
Aliquots of myocytes in Tyrode's buffer were placed in perfusion chambers (series 20 RC-27NE; Warner Instruments) complete with heating platforms. Myocytes were allowed to attach, the chambers were heated to 37° C., and the cells were perfused with 37° C. Tyrode's buffer. Myocytes were field stimulated at 1 Hz in with platinum electrodes (20% above threshold). Only cells that had clear striations and were quiescent prior to pacing were used for contractility experiments. To determine basal contractility, myocytes were imaged through a 40× objective. […] Once cell contraction was stable over time, test compounds (0.01-15 μM) were perfused into the chambers on the myocytes for 5 minutes. Contractility of the myocytes and contraction and relaxation velocities were then recorded using edge detection.
Five or more individual myocytes were tested per compound from two or more different myocyte preparations. For each cell, twenty or more contractility transients at basal (defined as 1 min prior to compound infusion) and after compound addition (defined as 5 min after starting compound perfusion), were averaged and compared. These average transients were analyzed using the IonWizard software (IonOptix) to determine changes in diastolic length and fractional shortening. Fractional shortening was calculated as: ((resting length−length at peak contraction) divided by the resting length). The percent change in fractional shortening from baseline was calculated as: ((post-dose fractional shortening/basal fractional shortening)*100). The percent reduction in fractional shortening from baseline was calculated as: (100−percent change in fractional shortening from baseline). Maximum contraction and relaxation velocities (um/sec) was also determined. Results from individual cells were averaged and the SEM was calculated.

male Sprague Dawley rats [3] = assay: Echocardiography assessment of acute pharmacodynamic effect on rat cardiac contractility, continuous IV infusion; format: in vivo; details: estimated plasma concentration at which fractional shortening is 50% of the pre-dose baseline contractility, read-out: IC50 (mean ± SD)
Description: (§1) Assessment of in vivo cardiac function by echocardiography was performed in male Sprague Dawley rats under isoflurane (1-3%) anesthesia. 2-D M-mode images of the left ventricle were acquired in the parasternal long-axis view before, during, and after administration of compounds by continuous IV infusion or oral gavage. In vivo fractional shortening was determined by M-mode image analysis with the following calculation: ((End diastolic diameter−end systolic diameter)/end diastolic diameter×100). For continuous IV infusion experiments, three pre-dose baseline M-mode images were taken at 1 minute intervals prior to infusion of compound. Compounds were formulated in 50% Propylene Glycol (PG): 16% Captisol: 10% dimethylacetamide (DMA) and delivered via a jugular vein catheter at the rate of 1 mL/kg/h. During infusion, M-mode images were taken at 5 minute intervals. The infusion was stopped when fractional shortening reached up to a 60% reduction from baseline. Blood samples were taken to determine the plasma concentration of the compounds. Data were reported as an estimated IC50 value, which is the concentration at which fractional shortening is 50% of the pre-dose baseline contractility.

male Sprague Dawley rats [4] = assay: Echocardiography assessment of acute pharmacodynamic effect on rat cardiac contractility, oral dosing; format: in vivo
Description: as §1
For oral dosing studies, three pre-dose baseline M-Mode images were taken at 1 minute intervals prior to compound administration. Compounds were formulated in a 0.5% hydroxypropyl methylcellulose 2910 (HPMC 2910): 0.1% Tween 80 suspension and delivered as a single dose (5 mL/kg) by oral gavage. At one and four hours post-dose, rats were lightly anesthetized for M-mode echocardiography measurement. The compound effect on cardiac fractional shortening are presented as a percent reduction of baseline fractional shortening (=100%) in Table D.
Concurrent with echocardiography measurements, blood samples are taken to determine the corresponding compound plasma concentration, which may be represented as IC50 and IC10 values, which is the concentration at which fractional shortening is 50% and 10% of the pre-dose baseline contractility, respectively.

SMILES | CDMF75 IC15 [1] | IC50 (male Sprague Dawley rats [3]) | % FS (% reduction from baseline) ± SEM ([2]; 5 μM) | % FS (% reduction from baseline) ± SEM ([2]; 10 μM) | also measured
CC(C)N1CC(=O)N(Cc2ccc(Cl)cc2)C(c2ccc(Cl)cc2)C1=O (single isomer, unassigned) [Compound 288A, 3-(4-chlorophenyl)-4-[(4-chlorophenyl)methyl]-1-(propan-2-yl)piperazine-2,5-dione] | 0.8 µM |  | 64.4 ± 9.7% |  | 
CNC(=O)N1CC2(C1)C(=O)N(c1ccc(Cl)cc1)CC(=O)N2Cc1ccc(C(F)(F)F)cc1 [Compound 150, 8-(4-chlorophenyl)-N-methyl-6,9-dioxo-5-(4-(trifluoromethyl)benzyl)-2,5,8-triazaspiro[3.5]-nonane-2-carboxamide] | 1.1 µM | 5.44 ± 0.12 µM |  |  | 
O=C1C(C2COC2)N(Cc2ccc(C(F)(F)F)cc2)C(=O)CN1c1ncc(Cl)cc1F (single isomer, unassigned) [Compound 861A, 1-(5-chloro-3-fluoropyridin-2-yl)-3-(oxetan-3-yl)-4-(4-(trifluoromethyl)benzyl)piperazine-2,5-dione] | 1.0 µM |  | 88.0 ± 3.31% |  | FS (% reduction from baseline) at 1 h (Mean ± SEM) (male Sprague Dawley rats [4]; 10 mg/kg oral): 13.4 ± 1.6%; FS (% reduction from baseline) at 4 h (Mean ± SEM) (male Sprague Dawley rats [4]; 10 mg/kg oral): 2.0 ± 3.1%; FS (% reduction from baseline) at 1 h (Mean ± SEM) (male Sprague Dawley rats [4]; 100 mg/kg oral): 50.0 ± 4.0%; FS (% reduction from baseline) at 4 h (Mean ± SEM) (male Sprague Dawley rats [4]; 100 mg/kg oral): 48.8 ± 5.0%
CC(C)N1CC(=O)N(Cc2ccc(Cl)cc2)C2(CCN(c3ccccn3)C2)C1=O (single isomer, unassigned) [Compound 373A, 6-[(4-chlorophenyl)methyl]-9-(propan-2-yl)-2-(pyridin-2-yl)-2,6,9-triazaspiro[4.5]decane-7,10-dione] | 0.4 µM |  |  | 76.6 ± 8.8% | 

Second part, led by results:

CDMF75 IC15 [1] | IC50 (male Sprague Dawley rats [3]) | SMILES | % FS (% reduction from baseline) ± SEM ([2]; 5 μM) | % FS (% reduction from baseline) ± SEM ([2]; 10 μM) | also measured
0.5 µM |  | CC(=O)N1CC[C@]2(C1)C(=O)N(c1ccc(C#N)cc1F)CC(=O)N2Cc1ccc(Cl)cc1 [Compound 206, (S)-4-(2-acetyl-6-(4-chlorobenzyl)-7,10-dioxo-2,6,9-triazaspiro[4.5]decan-9-yl)-3-fluorobenzonitrile] |  | 95.1 ± 1.6% | 
0.8 µM | 3.24 ± 0.07 µM | CC(=O)N1CC2(C1)C(=O)N(c1ccc(C#N)cc1F)CC(=O)N2Cc1ccc(C(F)(F)F)cc1 [Compound 202, 4-(2-acetyl-6,9-dioxo-5-[[4-(trifluoromethyl)phenyl]methyl]-2,5,8-triazaspiro[3.5]nonan-8-yl)-3-fluorobenzonitrile] | 68.4 ± 9.5% |  | FS (% reduction from baseline) at 1 h (Mean ± SEM) (male Sprague Dawley rats [4]; 3 mg/kg oral): 21.88 ± 2.66%; FS (% reduction from baseline) at 4 h (Mean ± SEM) (male Sprague Dawley rats [4]; 3 mg/kg oral): 11.25 ± 5.54%; FS (% reduction from baseline) at 1 h (Mean ± SEM) (male Sprague Dawley rats [4]; 15 mg/kg oral): 51.08 ± 1.93%; FS (% reduction from baseline) at 4 h (Mean ± SEM) (male Sprague Dawley rats [4]; 15 mg/kg oral): 20.18 ± 3.59%
